According to ChEMBL document CHEMBL5223091, “Targeting the Mitotic Kinesin KIF18A in Chromosomally Unstable Cancers: Hit Optimization Toward an In Vivo Chemical Probe” (J Med Chem, 2022):
≈ marks a conversion by molar mass, not a printed value. Calls of active or inactive are those of the source. No cut-off for these calls is given here.

Assays:
OVCAR-3 [1] = experiment: Antimitotic activity in human OVCAR-3 cells xenografted in CD-1 mouse assessed as increase in phospho-histone H3 positive cells in tumor at 100 mg/kg, po measured after 8 hrs; format: functional, organism-based
[2] = Unbound fraction in CD-1 mouse plasma xenografted with human OVCAR-3 cells at 100 mg/kg, ip by LC-MS/MS analysis; format: ADME, organism-based
[3] = Cmax in CD-1 mouse xenografted with human OVCAR-3 cells at 100 mg/kg, ip by LC-MS/MS analysis; format: ADME, organism-based; design: dose 100 mg/kg, route ip; settings: in vivo
OVCAR-3 [4] = experiment: Antiproliferative activity against human OVCAR-3 cells by nuclear count assay; format: functional, cell-based
[5] = target: T1, Kinesin-like protein KIF11 (Homo sapiens, UniProt P52732); experiment: Inhibition of recombinant GST-tagged human Eg5 assessed as inhibition of microtubule-stimulated ATPase activity preincubated for 30 mins followed by ATP addition and further incubated for 15 mins by ADP-Glo reagent based assay
T1 sequence (P52732 whole entry): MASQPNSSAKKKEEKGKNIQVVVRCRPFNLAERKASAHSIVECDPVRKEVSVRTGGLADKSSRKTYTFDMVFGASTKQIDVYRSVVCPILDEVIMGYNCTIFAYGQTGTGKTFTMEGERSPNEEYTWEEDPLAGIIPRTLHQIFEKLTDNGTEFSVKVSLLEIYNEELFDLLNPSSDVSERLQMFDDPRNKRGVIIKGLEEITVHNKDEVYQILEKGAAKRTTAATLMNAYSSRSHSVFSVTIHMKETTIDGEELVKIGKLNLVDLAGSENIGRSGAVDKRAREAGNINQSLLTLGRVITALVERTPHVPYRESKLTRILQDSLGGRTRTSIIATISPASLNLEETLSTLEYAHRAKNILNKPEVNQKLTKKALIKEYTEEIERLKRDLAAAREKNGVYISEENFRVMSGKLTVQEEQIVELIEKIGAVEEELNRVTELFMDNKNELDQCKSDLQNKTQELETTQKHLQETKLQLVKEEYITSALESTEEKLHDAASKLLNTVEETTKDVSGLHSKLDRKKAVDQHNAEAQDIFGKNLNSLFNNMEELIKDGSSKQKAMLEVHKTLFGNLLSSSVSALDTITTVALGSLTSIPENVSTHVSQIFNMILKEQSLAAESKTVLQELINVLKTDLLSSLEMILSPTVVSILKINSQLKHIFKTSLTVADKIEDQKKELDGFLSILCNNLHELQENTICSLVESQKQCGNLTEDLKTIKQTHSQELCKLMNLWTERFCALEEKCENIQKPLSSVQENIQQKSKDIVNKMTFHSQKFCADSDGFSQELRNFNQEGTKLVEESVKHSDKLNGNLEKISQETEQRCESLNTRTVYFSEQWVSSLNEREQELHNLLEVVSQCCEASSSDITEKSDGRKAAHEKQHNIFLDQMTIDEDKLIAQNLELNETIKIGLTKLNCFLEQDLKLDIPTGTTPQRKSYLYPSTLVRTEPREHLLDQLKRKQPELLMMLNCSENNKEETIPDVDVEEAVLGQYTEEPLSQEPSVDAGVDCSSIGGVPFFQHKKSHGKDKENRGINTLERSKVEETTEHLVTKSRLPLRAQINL

[6] = Oral bioavailability in CD-1 mouse at 10 mg/kg; format: ADME, organism-based; settings: in vivo
[7] = Kinetic solubility of compound at pH 2; format: physicochemical; settings: buffer, read-out: Kinetic_solubility
[8] = Unbound fraction in plasma (unknown origin) by ultracentrifugation; format: ADME, cell-free
MDA-MB-157 = experiment: Induction of mitotic arrest in TP53 mutant human MDA-MB-157 cells assessed as multipolar spindle arrays by measuring pericentriolar material incubated for 24 hrs by mitotic index assay; format: functional, cell-based; settings: MDA-MB-157, 24 h
[9] = Cmax in CD-1 mouse at 1 mg/kg, iv and 10 mg/kg, po; format: ADME, organism-based; design: dose 10 mg/kg, route po; settings: in vivo
[10] = Plasma concentration in CD-1 mouse xenografted with human OVCAR-3 cells at 100 mg/kg, po measured after 8 hrs; format: ADME, organism-based
[11] = Unbound fraction in CD-1 mouse plasma xenografted with human OVCAR-3 cells at 100 mg/kg, po by LC-MS/MS analysis; format: ADME, organism-based
[12] = Plasma concentration in CD-1 mouse xenografted with human OVCAR-3 cells at 100 mg/kg, po measured upto 24 hrs by LC-MS/MS analysis; format: ADME, organism-based

fraction unbound [2]: 0.022
Cmax [3]: 22.6 µM
EC50 (OVCAR-3 [4]): 32 nM
IC50 [5]: > 100000 nM
bioavailability [6]: 35%
solubility kinetic [7]: 500 µM (≈ 269 µg/mL)
fraction unbound [8]: 0.022
IC50 (MDA-MB-157): 32 nM
Cmax [9]: 2.15 µM
concentration at 8 h [10]: 5.7 µM
fraction unbound [11]: 0.022
concentration at 24 h [12]: 0.016 µM
Structure (SMILES): CC(C)(C)NS(=O)(=O)c1cccc(NC(=O)c2ncc(NS(C)(=O)=O)nc2N2CCC3(CC2)CC3)n1
Activity (OVCAR-3 [1]): Active
